Laboratory results taken from PubChem BioAssay (NCI).
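Tested at 5 concentrations; 48 h exposure; 96-well plates; endpoints linearly interpolated, else capped at highest concentration. The concentration for 50% growth inhibition is given as GI50. At the TGI there is no net growth.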

What was measured:
Test in all cases: NCI anticancer screen, dose series, 48 h
DU-145 prostate = test system: DU-145 prostate
HCT-15 colon = test system: HCT-15 colon
OVCAR-4 ovarian = test system: OVCAR-4 ovarian
LOX IMVI melanoma = test system: LOX IMVI melanoma
SK-OV-3 ovarian = test system: SK-OV-3 ovarian
KM12 colon = test system: KM12 colon
NCI-H226 lung = test system: NCI-H226 lung
SN12C renal = test system: SN12C renal
MOLT-4 leukemia = test system: MOLT-4 leukemia
RXF 393 renal = test system: RXF 393 renal

Structure (SMILES)	GI50 (DU-145 prostate)	TGI (DU-145 prostate)	GI50 (HCT-15 colon)	TGI (HCT-15 colon)	GI50 (OVCAR-4 ovarian)	TGI (OVCAR-4 ovarian)	GI50 (LOX IMVI melanoma)	TGI (LOX IMVI melanoma)	GI50 (SK-OV-3 ovarian)	TGI (SK-OV-3 ovarian)	GI50 (KM12 colon)	TGI (KM12 colon)	GI50 (NCI-H226 lung)	TGI (NCI-H226 lung)	GI50 (SN12C renal)	TGI (SN12C renal)	GI50 (MOLT-4 leukemia)	TGI (MOLT-4 leukemia)	GI50 (RXF 393 renal)	TGI (RXF 393 renal)
O=C(Nc1ccc(-n2ccc3c(NC(=O)c4ccccc4)ncnc32)cc1)c1cccc(C(F)(F)F)c1	1.77 µM	16.1 µM	0.0643 µM	24.8 µM	4.31 µM	31.2 µM	0.218 µM	5.83 µM	4.12 µM	29.4 µM	0.626 µM	16.7 µM	6.14 µM	26.1 µM	5.27 µM	27.9 µM	0.493 µM	32.7 µM	3.39 µM	19.9 µM
[O-][N+]1(CC[N+]2([O-])CCCCC2)CCCCC1		> 100 µM		> 100 µM		> 100 µM		> 100 µM		> 100 µM		> 100 µM		> 100 µM		> 100 µM		> 100 µM		> 100 µM
O=C(/C=C/c1ccc(C(F)(F)F)cc1)Nc1ccc(C=C2c3ccccc3C(=O)c3ccccc32)cc1	30.5 µM	> 100 µM	4.18 µM	> 100 µM	5.26 µM	> 100 µM	14.2 µM	> 100 µM	12.7 µM	86.7 µM	2.33 µM	40.6 µM	14.2 µM	> 100 µM	26.7 µM	> 100 µM	4.65 µM	65.1 µM	8.26 µM	60.4 µM
O=S1(=O)N(Cc2ccccc2)[C@@H](Cc2ccccc2)[C@H](O)[C@H](O)[C@H](Cc2ccccc2)N1Cc1ccccc1	3.21 µM	7.55 µM	4.37 µM	18.2 µM	2.72 µM	7.26 µM	3.28 µM	7.09 µM	4.15 µM	10.6 µM	2.94 µM	5.84 µM	3.04 µM	6.17 µM	3.26 µM	7.68 µM	2.86 µM	10.2 µM	2.6 µM	5.24 µM
O=c1c2cc(-c3ccccc3)sc2ncn1Cc1ccc(Cl)c(Cl)c1	32.9 µM	> 100 µM	0.845 µM	> 100 µM	12.5 µM	38 µM	51.9 µM	> 100 µM	19.4 µM	58 µM	0.32 µM	6.38 µM	13.1 µM	87.2 µM	13.1 µM	39.1 µM	18.9 µM	54.9 µM	17.1 µM	48.2 µM
C[Si](C)(c1ccc(C(=O)O)cc1)c1ccc(C(=O)O)cc1		> 100 µM		> 100 µM		> 100 µM		> 100 µM		> 100 µM		> 100 µM		> 100 µM		> 100 µM		> 100 µM		> 100 µM
Cc1cc(Nc2nc(C(=O)Nc3ccccc3)nc3ccccc23)n[nH]1	9.08 µM	> 25 µM	1.39 µM	> 25 µM	7.87 µM	> 25 µM	4.47 µM	> 25 µM	12.8 µM	> 25 µM	3.68 µM	> 25 µM	10 µM	> 25 µM	10.3 µM	> 25 µM	9.75 µM	> 25 µM	3.66 µM	> 25 µM
O=[N+]([O-])c1cccc(-c2nc(-c3ccccc3)c(-c3ccccc3)[nH]2)c1		> 100 µM						> 100 µM		> 100 µM				> 100 µM		> 100 µM		> 100 µM		> 100 µM
CN(C)c1nc(=NCc2ccco2)ss1		> 100 µM		49.9 µM		51.7 µM		38.4 µM		> 87 µM		> 55.7 µM		> 91.5 µM		57.2 µM		44.8 µM		16.1 µM
CCOc1ccc2c(c1)C(=O)c1c-2n(CCCBr)c(=O)c2cc([N+](=O)[O-])ccc12	4.29 µM	> 100 µM	36 µM	> 100 µM	> 100 µM	> 100 µM	5.38 µM	> 100 µM	17.6 µM	> 100 µM	56 µM	> 100 µM	5.64 µM	> 100 µM	11.9 µM	> 100 µM	4.18 µM	> 100 µM	37.9 µM	> 100 µM
CCCCCN(CCCCC)CC(O)c1cc(Cl)ccc1OC (stereo unspecified)	10.8 µM	23.5 µM	6.32 µM	21.5 µM	3.17 µM	16 µM	5.23 µM	18.4 µM	12.8 µM	29.5 µM	7.35 µM	21.3 µM	9.79 µM	23.6 µM	10.5 µM	28.8 µM	6.94 µM	28.7 µM	2.58 µM	7.87 µM
CC(C)c1nc(N(C)S(C)(=O)=O)nc(-c2ccc(F)cc2)c1/C=C/[C@@H](O)C[C@@H](O)CC(=O)O	> 100 µM	> 100 µM	57.4 µM	> 100 µM	> 100 µM	> 100 µM	21.2 µM	> 100 µM	> 100 µM	> 100 µM	> 100 µM	> 100 µM	> 100 µM	> 100 µM	56.2 µM	> 100 µM	> 100 µM	> 100 µM	41.5 µM	> 100 µM
NS(=O)(=O)c1ccc(N=Nc2c(O)[nH]c3ccc(C(=O)NCc4ccncc4)cc23)cc1	> 25 µM	> 25 µM	> 25 µM	> 25 µM	> 25 µM	> 25 µM	> 25 µM	> 25 µM	> 25 µM	> 25 µM	> 25 µM	> 25 µM	> 25 µM	> 25 µM	> 25 µM	> 25 µM	> 25 µM	> 25 µM	> 25 µM	> 25 µM
CN(C)CCNC(=O)c1ccc(-c2nc3ccc4[nH]ncc4c3c3c2C2CCC3C2)cc1 (stereo unspecified)	0.965 µM	6 µM	2.44 µM	11.4 µM	1.6 µM	5.53 µM	1.19 µM	2.79 µM	0.348 µM	4.28 µM	0.534 µM	3.36 µM	1.28 µM	5.43 µM	1.82 µM	6.88 µM	1.1 µM	5.56 µM	0.267 µM	1.18 µM
CCC(C)Oc1nc2c(c(=O)n(C)c(=O)n2C)n1C (stereo unspecified)	> 100 µM	> 100 µM	> 100 µM	> 100 µM	> 100 µM	> 100 µM	> 100 µM	> 100 µM	> 100 µM	> 100 µM	> 100 µM	> 100 µM	> 100 µM	> 100 µM	> 100 µM	> 100 µM	> 100 µM	> 100 µM	> 100 µM	> 100 µM
c1cc(-c2nnc(SSc3ncnc4nc[nH]c34)o2)ccn1	0.455 µM	> 100 µM	2.8 µM	> 100 µM	0.519 µM	> 100 µM	0.297 µM	17.3 µM	0.45 µM	> 100 µM	2.61 µM	> 100 µM	4.63 µM	> 100 µM	6.6 µM	> 100 µM	1.23 µM	> 100 µM	6.59 µM	> 100 µM
O=[N+]([O-])c1nccn1CC(O)CN1CCCCC1 (stereo unspecified)		> 100 µM		> 100 µM		> 100 µM		> 100 µM		> 100 µM		> 100 µM		> 100 µM		> 100 µM		> 100 µM		> 100 µM
COC(=O)C(CCC(=O)CCl)N1C(=O)c2ccccc2C1=O (stereo unspecified)		26.9 µM		15.8 µM		27.4 µM		4.02 µM		31.5 µM		36.9 µM		29.9 µM		23.8 µM		6.94 µM		6.45 µM
CCN1CCN(Cc2ccc(NC(=O)Nc3nc4ccc(Oc5ccnc(C(=O)NC)c5)cc4s3)cc2C(F)(F)F)CC1	1.76 µM	3.62 µM	1.65 µM	3.38 µM			1.71 µM	3.17 µM	1.82 µM	3.36 µM	0.019 µM	1.63 µM	1.45 µM	3.16 µM	1.8 µM	3.66 µM	2.13 µM	5.02 µM	1.67 µM	3.13 µM
CN1CCN(Cc2ccc(NC(=O)c3cncc(C#Cc4cnc(N)cc4C#N)c3)cc2C(F)(F)F)CC1	3.25 µM	15.5 µM	3.87 µM	13.9 µM			0.601 µM	1.99 µM	2.63 µM	9.31 µM	0.0632 µM	13.3 µM	0.706 µM	11.9 µM	2.46 µM	10.7 µM	1.86 µM	22.3 µM	1.45 µM	5.55 µM
CSc1ncc(Br)c(Sc2nc(N)nc3nc[nH]c23)n1	1.44 µM	23.9 µM	3.18 µM	50.8 µM	5.08 µM	> 100 µM	0.816 µM	17.7 µM	1.62 µM	10.3 µM	3.63 µM	22.7 µM	2.65 µM	29.5 µM	3.8 µM	36.5 µM			2.97 µM	28.5 µM
